Experimental data from patent US11939294B1 (priority 2023, dated 2024).

Columns and labels:
[1] = tested on: Mycobacterium tuberculosis H37Rv (susceptible; ATCC: 25177); experiment: Resazurin Microplate Assay (REMA), anti-tubercular activity, susceptible strain; format: cell-based; details: 192 h, read-out: MIC (μg/mL) Susceptible (H37Rv), H37Rv, ATCC: 25177, 8 days incubation at 37° C.

SMILES | melting point | MIC [1]
COc1ccc(C(=O)C[n+]2cc(C)cc(C)c2)cc1.[Br-] | 108 °C | –
Cc1cc(C)c[n+](CC(=O)c2ccc(Cl)cc2)c1.[Br-] | 125 °C | –
Cc1cc(C)c[n+](CC(=O)c2ccc(Br)cc2)c1.[Br-] | 210 °C | –
Cc1cc(C)c[n+](CC(=O)c2ccc(F)cc2)c1.[Br-] [Compound 3d, 1-(2-(4-Fluorophenyl)-2-oxoethyl)-3,5-dimethylpyridin-1-ium bromide] | 123 °C | ~8 µg/mL
